pIC50: −log10 of the molar value. Some results are limits rather than exact numbers.

Data on 44 compounds can be found in the Kinase Knowledgebase extract (Sharma et al. 2016).

Sequence of ROCK2 (human) (O75116 whole entry, looked up): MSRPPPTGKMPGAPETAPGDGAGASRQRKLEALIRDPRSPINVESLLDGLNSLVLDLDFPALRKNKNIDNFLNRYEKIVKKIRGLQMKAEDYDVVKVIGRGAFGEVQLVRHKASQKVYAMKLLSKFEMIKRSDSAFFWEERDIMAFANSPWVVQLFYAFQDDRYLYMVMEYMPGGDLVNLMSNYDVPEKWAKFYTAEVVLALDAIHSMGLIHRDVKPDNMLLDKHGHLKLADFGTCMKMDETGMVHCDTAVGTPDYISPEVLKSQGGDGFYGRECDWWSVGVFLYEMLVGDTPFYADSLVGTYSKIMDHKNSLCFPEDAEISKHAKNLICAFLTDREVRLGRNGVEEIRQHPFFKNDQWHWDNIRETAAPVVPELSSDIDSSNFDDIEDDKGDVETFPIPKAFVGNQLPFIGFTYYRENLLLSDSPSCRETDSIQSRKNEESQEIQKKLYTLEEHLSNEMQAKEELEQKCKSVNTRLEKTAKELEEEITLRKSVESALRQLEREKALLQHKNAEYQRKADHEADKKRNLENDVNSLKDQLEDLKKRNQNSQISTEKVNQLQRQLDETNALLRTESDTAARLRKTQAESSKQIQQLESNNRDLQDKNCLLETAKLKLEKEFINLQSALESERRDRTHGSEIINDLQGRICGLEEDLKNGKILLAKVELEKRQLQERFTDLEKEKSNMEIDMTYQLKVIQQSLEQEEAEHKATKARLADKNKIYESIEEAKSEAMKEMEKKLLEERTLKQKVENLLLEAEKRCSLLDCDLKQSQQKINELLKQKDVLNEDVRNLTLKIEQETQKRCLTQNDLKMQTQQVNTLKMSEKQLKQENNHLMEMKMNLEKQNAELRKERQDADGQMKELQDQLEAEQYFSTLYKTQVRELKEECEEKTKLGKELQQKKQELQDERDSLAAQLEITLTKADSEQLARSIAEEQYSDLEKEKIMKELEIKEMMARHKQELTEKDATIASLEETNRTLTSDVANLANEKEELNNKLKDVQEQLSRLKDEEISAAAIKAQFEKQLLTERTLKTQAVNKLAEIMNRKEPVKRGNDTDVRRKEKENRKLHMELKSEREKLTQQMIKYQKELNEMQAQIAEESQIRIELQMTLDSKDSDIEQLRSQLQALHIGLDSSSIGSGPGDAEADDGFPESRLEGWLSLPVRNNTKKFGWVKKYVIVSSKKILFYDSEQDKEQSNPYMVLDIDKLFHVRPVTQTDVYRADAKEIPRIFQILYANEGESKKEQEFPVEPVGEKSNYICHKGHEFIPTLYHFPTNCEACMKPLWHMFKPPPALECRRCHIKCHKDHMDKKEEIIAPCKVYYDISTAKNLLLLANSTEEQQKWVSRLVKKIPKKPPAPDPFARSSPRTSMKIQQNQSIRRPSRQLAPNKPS

This assay has as its target ROCK2 (human) (UniProt O75116). Description: Inhibition of ROCK2 Kinase Activity.
As usually defined, the pIC50 is the IC50 on a negative log10 scale, so that one unit is a factor of ten. With `NC(c1ccc(C(=O)Nc2ccncc2)cc1)C1CCCN1C(=O)C1(c2ccc(F)cc2F)CC1` (centres undefined), the pIC50 is 5.30 to 6.30.

Consider `NC(CC(=O)N[C@@H]1CCc2ccccc21)c1ccc(C(=O)Nc2ccncc2)cc1` (some centres undefined), for which the negative logarithm of the IC50 (pIC50) is 6.30 to 7.30. `NC(c1ccc(C(=O)Nc2ccncc2)cc1)C1CCCN1C(=O)Cc1ccc(Cl)c(Cl)c1` (centres undefined) showed a negative logarithm of the IC50 (pIC50) of 5.30 to 6.30.

On to `NC(c1ccc(C(=O)Nc2ccncc2)cc1)C1CCCN1C(=O)Cc1ccccc1F` (centres undefined), for which the negative logarithm of the IC50 (pIC50) is 6.30 to 7.30.

`CN(CC(N)c1ccc(C(=O)Nc2ccncc2)cc1)C(=O)C(C)(C)c1ccc(Cl)cc1` (centres undefined) showed a pIC50 of 5.30 to 6.30. The compound `CN(CC(N)c1ccc(C(=O)Nc2ccncc2)cc1)C(=O)C1(c2ccc(Cl)cc2)CC1` (centres undefined) had a negative logarithm of the IC50 (pIC50) of 5.30 to 6.30. `COc1ccc(CC(=O)N2CCCC2C(N)c2ccc(C(=O)Nc3ccncc3)cc2)cc1` (centres undefined) had a pIC50 of 6.30 to 7.30. `N[C@H](CC(=O)N[C@@H]1CCCc2ccccc21)c1ccc(C(=O)Nc2ccncc2)cc1` showed a pIC50 of over 7.30.

Compound `Cc1cccc(CC(=O)NCC(N)c2ccc(C(=O)Nc3ccncc3)cc2)c1` (centres undefined) gave a pIC50 of 6.30 to 7.30. In turn, `COc1ccc(NC(=O)NCC(N)c2ccc(C(=O)Nc3ccncc3)cc2)cc1` (centres undefined) showed a pIC50 of 6.30 to 7.30.

`CN(CC(N)c1ccc(C(=O)Nc2ccncc2)cc1)C(=O)Cc1cc(F)ccc1F` (centres undefined): the pIC50 is 5.30 to 6.30.

`NC(CNC(=O)c1ccsc1)c1ccc(C(=O)Nc2ccncc2)cc1` (centres undefined) gave a pIC50 of 6.30 to 7.30. Compound `NC(c1ccc(C(=O)Nc2ccncc2)cc1)C1CCCN1C(=O)Cc1ccc(Br)cc1` (centres undefined) gave a pIC50 of 6.30 to 7.30. On to `NC(c1ccc(C(=O)Nc2ccncc2)cc1)C1CCCN1C(=O)Cc1ccc(F)c(Cl)c1` (centres undefined), for which the pIC50 was 6.30 to 7.30. As for `NC(CNC(=O)c1ccc(Oc2ccccc2)cc1)c1ccc(C(=O)Nc2ccncc2)cc1` (centres undefined), the pIC50 was 5.30 to 6.30. As for `NC(CNC(=S)Nc1ccc(OC(F)(F)F)cc1)c1ccc(C(=O)Nc2ccncc2)cc1` (centres undefined), the negative-log IC50 (pIC50) was 5.30 to 6.30. In turn, `NC(c1ccc(C(=O)Nc2ccncc2)cc1)C1CCCN1C(=O)Cc1cncc(Br)c1` (centres undefined) had a negative-log IC50 (pIC50) of 5.30 to 6.30. Compound `CC(C)(C(=O)NCC(N)c1ccc(C(=O)Nc2ccncc2)cc1)c1cccs1` (centres undefined) had a negative logarithm of the IC50 (pIC50) of 6.30 to 7.30. Under `NC(CNC(=O)c1ccccc1)c1ccc(C(=O)Nc2ccncc2)cc1` (centres undefined) stands 6.30 to 7.30. For `NC(CC(=O)NCc1cc(C(F)(F)F)cc(C(F)(F)F)c1)c1ccc(C(=O)Nc2ccncc2)cc1` (centres undefined), the negative-log IC50 (pIC50) is 6.30 to 7.30. Compound `COc1ccc(NC(=O)CC(N)c2ccc(C(=O)Nc3ccncc3)cc2)cc1` (centres undefined) gave a negative logarithm of the IC50 (pIC50) of 6.30 to 7.30.

The compound `CN(CC(N)c1ccc(C(=O)Nc2ccncc2)cc1)C(=O)Cc1cccc2ccccc12` (centres undefined) had a pIC50 of 5.30 to 6.30. Under `NC(CNC(=O)Cc1ccncc1)c1ccc(C(=O)Nc2ccncc2)cc1` (centres undefined) stands 5.30 to 6.30. The compound `CN(CC(N)c1ccc(C(=O)Nc2ccncc2)cc1)C(=O)C1(c2ccc(F)c(F)c2)CCC1` (centres undefined) showed a pIC50 of 5.30 to 6.30. Consider `Cc1ccsc1C=NOCC(=O)NCC(N)c1ccc(C(=O)Nc2ccncc2)cc1` (centres undefined), for which the pIC50 was 5.30 to 6.30. As for `CC[C@@H](NC(=O)CC(N)c1ccc(C(=O)Nc2ccncc2)cc1)c1ccc(C)cc1` (some centres undefined), the figure is 6.30 to 7.30.

`N[C@H](CC(=O)N[C@@H]1COc2ccccc21)c1ccc(C(=O)Nc2ccncc2)cc1`: the negative logarithm of the IC50 (pIC50) is over 7.30. Regarding `CC(C)(C)c1ccc(NC(=O)NCC(N)c2ccc(C(=O)Nc3ccncc3)cc2)cc1` (centres undefined), the negative logarithm of the IC50 (pIC50) is 5.30 to 6.30.

Compound `CC(C)(C(=O)NCC(N)c1ccc(C(=O)Nc2ccncc2)cc1)c1ccc(F)cc1` (centres undefined) had a negative logarithm of the IC50 (pIC50) of 6.30 to 7.30. Under `CCC(Oc1ccccc1)C(=O)NCC(N)c1ccc(C(=O)Nc2ccncc2)cc1` (centres undefined) stands 6.30 to 7.30; under `COc1ccc2c(c1)CCCC2C(=O)NCC(N)c1ccc(C(=O)Nc2ccncc2)cc1` (centres undefined), 6.30 to 7.30; under `CC(=O)NCCNC(=O)CC(N)c1ccc(C(=O)Nc2ccncc2)cc1` (centres undefined), 6.30 to 7.30. Turning to `NC(CNC(=O)c1csc(Nc2ccc(F)cc2)n1)c1ccc(C(=O)Nc2ccncc2)cc1` (centres undefined), the negative-log IC50 (pIC50) is 5.30 to 6.30. The compound `NC(CNC(=O)C1(c2ccc(F)cc2Cl)CC1)c1ccc(C(=O)Nc2ccncc2)cc1` (centres undefined) gave a negative-log IC50 (pIC50) of 6.30 to 7.30. Turning to `CN(CC(N)c1ccc(C(=O)Nc2ccncc2)cc1)C(=O)C1CCc2ccccc21` (centres undefined), the negative-log IC50 (pIC50) was 5.30 to 6.30. In turn, `Cc1ccc(C)c(CC(=O)NCC(N)c2ccc(C(=O)Nc3ccncc3)cc2)c1` (centres undefined) gave a negative-log IC50 (pIC50) of 5.30 to 6.30. Take `Cc1nc(-c2ccccc2)sc1C(=O)NCC(N)c1ccc(C(=O)Nc2ccncc2)cc1` (centres undefined): the negative logarithm of the IC50 (pIC50) is 5.30 to 6.30.

Compound `NC(CNC(=O)c1cnnc2ccccc12)c1ccc(C(=O)Nc2ccncc2)cc1` (centres undefined) had a negative logarithm of the IC50 (pIC50) of 5.30 to 6.30.

Compound `NC(CC(=O)NCCc1ccccc1)c1ccc(C(=O)Nc2ccncc2)cc1` (centres undefined) gave a pIC50 of 6.30 to 7.30. Take `N#CCCN(C(=O)CC(N)c1ccc(C(=O)Nc2ccncc2)cc1)C1CC1` (centres undefined): the negative-log IC50 (pIC50) is 5.30 to 6.30. Consider `COc1ccc(CC(=O)N2CCCC2C(N)c2ccc(C(=O)Nc3ccncc3)cc2)c(OC)c1` (centres undefined), for which the negative logarithm of the IC50 (pIC50) was 5.30 to 6.30. `Cc1cc(Cl)ccc1OC(C)C(=O)NCC(N)c1ccc(C(=O)Nc2ccncc2)cc1` (centres undefined) had a pIC50 of 6.30 to 7.30.

`NC(c1ccc(C(=O)Nc2ccncc2)cc1)C1CCCN1C(=O)C1CCCCc2ccc(F)cc21` (centres undefined) gave a negative logarithm of the IC50 (pIC50) of 4.30 to 5.30. `Cc1ccccc1CC(=O)N(C)CC(N)c1ccc(C(=O)Nc2ccncc2)cc1` (centres undefined) showed a pIC50 of 5.30 to 6.30.
